# Assays:
# HT-1080 = assay: Modulatory profiling: Alamar Blue viability, lethal compound cotreated with death modulator (EC50, AUC); type: cell-based; design: AUC, modulator HT.3MA / AUC, modulator HT.ALLN / AUC HT.ATA / AUC HT.ActD / AUC HT.BHA / AUC HT.BHT / AUC HT.BocD / AUC HT.CHX / AUC HT.Co2+ / AUC HT.DPQ / AUC HT.EGTA / AUC HT.Lmim / AUC HT.NAD+ / AUC HT.Nec-1 / AUC HT.SP600125 / AUC HT.TLCK / AUC HT.U0126: unit not given beside the values; details: for AUC HT.ATA: HT-1080, modulator ATA; for AUC HT.ActD: HT-1080, modulator ActD; for AUC HT.BHA: HT-1080, modulator BHA; for AUC HT.BHT: HT-1080, modulator BHT; for AUC HT.BocD: HT-1080, modulator BocD; for AUC HT.CHX: HT-1080, modulator CHX; for AUC HT.Co2+: HT-1080, modulator Co2+; for AUC HT.CspA: HT-1080, modulator CspA; for AUC HT.DPQ: HT-1080, modulator DPQ; for AUC HT.EGTA: HT-1080, modulator EGTA; for AUC HT.Gd3+: HT-1080, modulator Gd3+; for AUC HT.LNAME: HT-1080, modulator LNAME; for AUC HT.Lmim: HT-1080, modulator Lmim; for AUC HT.NAD+: HT-1080, modulator NAD+; for AUC HT.NMMA: HT-1080, modulator NMMA; for HT.atoc (AUC) / HT.bCarotene (AUC) / HT.deferox (AUC) / HT.digoxin (AUC) / HT.trolox (AUC) / HT.zVAD (AUC) / EC50: HT-1080; for HT.atoc (AUC): modulator atoc; for HT.bCarotene (AUC): modulator bCarotene; for HT.deferox (AUC): modulator deferox; for HT.digoxin (AUC): modulator digoxin; for HT.trolox (AUC): modulator trolox; for HT.zVAD (AUC): modulator zVAD; for EC50: Homo sapiens, HT-1080, 48 h, 48 h
# BJeLR = assay: as above; type: cell-based, human; design: AUC, modulator BJ.Gd3+ / AUC, modulator BJ.LNAME / AUC, modulator BJ.Lmin / AUC, modulator BJ.3MA / AUC, modulator BJ.ALLN / AUC, modulator BJ.Boc D / AUC, modulator BJ.CHX / AUC, modulator BJ.Co2+ / AUC, modulator BJ.Nec-1 / AUC, modulator BJ.Pepstatin / AUC, modulator BJ.TLCK / AUC, modulator BJ.atoc / AUC, modulator BJ.trolox / AUC, modulator BJ.zVAD: unit not given beside the values; details: for AUC, modulator BJ.3MA / AUC, modulator BJ.ALLN / AUC, modulator BJ.Boc D / AUC, modulator BJ.CHX / AUC, modulator BJ.Co2+ / AUC, modulator BJ.DPQ / AUC, modulator BJ.Gd3+ / AUC, modulator BJ.LNAME / AUC, modulator BJ.Lmin/NAD+ / AUC, modulator BJ.Lmin / AUC, modulator BJ.NAD+ / AUC, modulator BJ.NMMA / AUC, modulator BJ.Nec-1 / AUC, modulator BJ.Pepstatin / AUC, modulator BJ.TLCK: BJeLR cells, modulatory profile value (AUC); for AUC, modulator BJ.3MA: lethal compound cotreated with modulator 3MA; for AUC, modulator BJ.ALLN: lethal compound cotreated with modulator ALLN; for AUC, modulator BJ.Boc D: lethal compound cotreated with modulator Boc D; for AUC, modulator BJ.CHX: lethal compound cotreated with modulator CHX; for AUC, modulator BJ.Co2+: lethal compound cotreated with modulator Co2+; for AUC, modulator BJ.DPQ: lethal compound cotreated with modulator DPQ; for AUC, modulator BJ.Gd3+: lethal compound cotreated with modulator Gd3+; for AUC, modulator BJ.LNAME: lethal compound cotreated with modulator LNAME; for AUC, modulator BJ.Lmin/NAD+: lethal compound cotreated with modulator Lmin/NAD+; for AUC, modulator BJ.Lmin: lethal compound cotreated with modulator Lmin; for AUC, modulator BJ.NAD+: lethal compound cotreated with modulator NAD+; for AUC, modulator BJ.NMMA: lethal compound cotreated with modulator NMMA; for AUC, modulator BJ.Nec-1: lethal compound cotreated with modulator Nec-1; for AUC, modulator BJ.Pepstatin: lethal compound cotreated with modulator Pepstatin; for AUC, modulator BJ.TLCK: lethal compound cotreated with modulator TLCK; for EC50: Homo sapiens, BJeLR, 48 h
# [1] = cotreated with antioxidant Trolox
# [2] = cotreated with iron-chelator Lmim
structure (smiles),measurement,setting,value
O=C(CCl)N(c1ccccc1)c1c[nH]c2ccccc12 [CIL69],AUC HT.ATA,HT-1080,−0.005358
same,AUC HT.ActD,HT-1080,−0.004265
same,AUC HT.BHA,HT-1080,0.2489
same,AUC HT.BHT,HT-1080,0.2227
same,AUC HT.BocD,HT-1080,−0.03457
same,AUC HT.CHX,HT-1080,0.03395
same,AUC HT.Co2+,HT-1080,0.07132
same,AUC HT.CspA,HT-1080,0.009848
same,AUC HT.DPQ,HT-1080,−0.006588
same,AUC HT.EGTA,HT-1080,0.06032
same,AUC HT.Gd3+,HT-1080,−0.01446
same,AUC HT.LNAME,HT-1080,−0.04538
same,AUC HT.Lmim,HT-1080,0.1792
same,AUC HT.NAD+,HT-1080,0.03637
same,AUC HT.NMMA,HT-1080,−0.04048
same,HT.atoc (AUC),HT-1080,0.3456
same,HT.bCarotene (AUC),HT-1080,−0.0167
same,HT.deferox (AUC),HT-1080,0.3005
same,HT.digoxin (AUC),HT-1080,−0.0261
same,HT.trolox (AUC),HT-1080,0.2631
same,HT.zVAD (AUC),HT-1080,−0.0004734
same,effect of ferroptosis inhibitors (iron chelators and lipophilic antioxidants) on lethality in modulatory profiling,HT-1080; HT-1080 and BJeLR,suppression by canonical ferroptosis inhibitors
same,EC50,HT-1080; DMSO,0.551 µM
same,EC50,HT-1080; cotreated with MEK inh U0126,5.75 µM
same,EC50,HT-1080; cotreated with antioxidant Atoc,6.13 µM
same,EC50,HT-1080; cotreated with antioxidant BHA,4.79 µM
same,EC50,HT-1080; cotreated with antioxidant BHT,3.28 µM
same,EC50,HT-1080; [1],4.26 µM
same,EC50,HT-1080; cotreated with iron-chelator Deferoxamine,9.29 µM
same,EC50,HT-1080; [2],4.79 µM
same,"AUC, modulator BJ.3MA",BJeLR,0.07713
same,"AUC, modulator BJ.ALLN",BJeLR,−0.0005222
same,"AUC, modulator BJ.Boc D",BJeLR,−0.003228
same,"AUC, modulator BJ.CHX",BJeLR,−0.03495
same,"AUC, modulator BJ.Co2+",BJeLR,0.1724
same,"AUC, modulator BJ.DPQ",BJeLR,0.02521
same,"AUC, modulator BJ.Gd3+",BJeLR,0.02983
same,"AUC, modulator BJ.LNAME",BJeLR,0.005201
same,"AUC, modulator BJ.Lmin/NAD+",BJeLR,0.1449
same,"AUC, modulator BJ.Lmin",BJeLR,0.1799
same,"AUC, modulator BJ.NAD+",BJeLR,0.02203
same,"AUC, modulator BJ.NMMA",BJeLR,−0.02133
same,"AUC, modulator BJ.Nec-1",BJeLR,0.1721
same,"AUC, modulator BJ.Pepstatin",BJeLR,0.0531
same,"AUC, modulator BJ.TLCK",BJeLR,0.1963
same,EC50,BJeLR; DMSO,0.193 µM
same,EC50,BJeLR; cotreated with Lmim_NAD,0.889 µM
same,EC50,BJeLR; [1],2.05 µM
same,EC50,BJeLR; cotreated with antioxidant atoc,1.78 µM
same,EC50,BJeLR; [2],0.976 µM
COC(=O)c1[nH]c2ccc(Br)cc2c1NC(=O)CN1CCN(C2CCCCC2)CC1 [CIL71],AUC HT.ATA,HT-1080,0.03481
same,AUC HT.ActD,HT-1080,0.0007018
same,AUC HT.BHA,HT-1080,−0.05622
same,AUC HT.BHT,HT-1080,−0.05839
same,AUC HT.BocD,HT-1080,0.01089
same,AUC HT.CHX,HT-1080,0.0761
same,AUC HT.Co2+,HT-1080,0.02342
same,AUC HT.CspA,HT-1080,−0.03233
same,AUC HT.DPQ,HT-1080,−0.003505
same,AUC HT.EGTA,HT-1080,−0.02298
same,AUC HT.Gd3+,HT-1080,−0.01552
same,AUC HT.LNAME,HT-1080,0.02366
same,AUC HT.Lmim,HT-1080,−0.002609
same,AUC HT.NAD+,HT-1080,0.01546
same,AUC HT.NMMA,HT-1080,−0.0007859
same,HT.atoc (AUC),HT-1080,0.03733
same,HT.bCarotene (AUC),HT-1080,−0.01281
same,HT.deferox (AUC),HT-1080,−0.003654
same,HT.digoxin (AUC),HT-1080,−0.01046
same,HT.trolox (AUC),HT-1080,−0.01311
same,HT.zVAD (AUC),HT-1080,0.01756
same,"AUC, modulator BJ.3MA",BJeLR,0.01151
same,"AUC, modulator BJ.ALLN",BJeLR,−0.05589
same,"AUC, modulator BJ.Boc D",BJeLR,0.0152
same,"AUC, modulator BJ.CHX",BJeLR,−0.06352
same,"AUC, modulator BJ.Co2+",BJeLR,0.02676
same,"AUC, modulator BJ.DPQ",BJeLR,0.03052
same,"AUC, modulator BJ.Gd3+",BJeLR,0.01394
same,"AUC, modulator BJ.LNAME",BJeLR,0.001204
same,"AUC, modulator BJ.Lmin/NAD+",BJeLR,0.001502
same,"AUC, modulator BJ.Lmin",BJeLR,−0.02138
same,"AUC, modulator BJ.NAD+",BJeLR,−0.03656
same,"AUC, modulator BJ.NMMA",BJeLR,−0.000118
same,"AUC, modulator BJ.Nec-1",BJeLR,−0.02956
same,"AUC, modulator BJ.Pepstatin",BJeLR,−0.01112
same,"AUC, modulator BJ.TLCK",BJeLR,0.01514

# Reference: patent US10947188B2, “Small molecule ferroptosis inducers” (THE TRUSTEES OF COLUMBIA UNIVERSITY IN THE CITY OF NEW YORK, priority 2016, dated 2021)
